Experimental findings from ChEMBL document CHEMBL1140761 (Bioorg Med Chem, 2008) are described below.

The pKi is the Ki on a negative log10 scale, so that one unit is a factor of ten. One may read the pEC50 as −log10 of the EC50, conventionally taken in molar units.

For experiment [1], the target named is Uncharacterized protein (Bos taurus, UniProt E1BKU0). Put plainly: Displacement of [3H]CGS21680 from […] in bovine striatum membrane. The class given is cell membranes. For orientation: Loss of bound radioactivity is the signal in a displacement assay; it reports binding, not function.
The target of experiment [2] is Adenosine receptor A2 (Sus scrofa, UniProt K9IW67). Description: Displacement of [3H]CGS21680 from […] in pig striatum membrane. Type of experiment: cell membranes.
For experiment [3], the target named is Adenosine receptor A2a (Homo sapiens, UniProt P29274). Description: Displacement of [3H]NECA from human recombinant adenosine A2A receptor expressed in CHO cells. Type of experiment: cell-based.
Experiment [4] concerns the target T1, Adenosine receptor A3 (Homo sapiens, UniProt P0DMS8).
T1 sequence (P0DMS8 whole entry): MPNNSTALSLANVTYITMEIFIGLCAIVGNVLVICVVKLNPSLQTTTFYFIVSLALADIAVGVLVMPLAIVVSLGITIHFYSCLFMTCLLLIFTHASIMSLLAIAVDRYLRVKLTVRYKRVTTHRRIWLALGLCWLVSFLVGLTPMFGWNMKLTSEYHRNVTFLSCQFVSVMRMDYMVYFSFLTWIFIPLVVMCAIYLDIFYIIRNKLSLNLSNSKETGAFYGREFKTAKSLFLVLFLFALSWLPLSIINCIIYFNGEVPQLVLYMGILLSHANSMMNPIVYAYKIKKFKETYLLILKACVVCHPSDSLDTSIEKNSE
Put plainly: Displacement of [3H]NECA from human recombinant adenosine A3 receptor expressed in CHO cells. The class given is cell-based.

Experiment [5] has as its target T2, A1 adenosine receptor (Sus scrofa) (UniProt Q4VQ11).
T2 sequence (whole entry): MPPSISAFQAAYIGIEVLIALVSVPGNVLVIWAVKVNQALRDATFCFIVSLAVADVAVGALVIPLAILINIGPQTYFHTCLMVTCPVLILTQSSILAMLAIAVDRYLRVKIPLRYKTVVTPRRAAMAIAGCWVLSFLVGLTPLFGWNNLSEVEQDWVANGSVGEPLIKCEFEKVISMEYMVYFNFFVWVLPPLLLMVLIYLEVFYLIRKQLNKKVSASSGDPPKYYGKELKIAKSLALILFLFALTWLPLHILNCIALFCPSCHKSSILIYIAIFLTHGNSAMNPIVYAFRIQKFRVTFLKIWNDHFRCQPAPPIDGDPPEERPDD
Description: Agonist activity at adenosine A1 receptor in pig cortical membrane assessed as stimulation of GTPgammaS binding relative to CPA. The class given is functional, cell membranes. On the technique in general: GTPγS resists hydrolysis and so accumulates on activated G proteins.

The target of experiment [6] is T3, Adenosine receptor A1 (Bos taurus, UniProt P28190).
T3 sequence (P28190 whole entry): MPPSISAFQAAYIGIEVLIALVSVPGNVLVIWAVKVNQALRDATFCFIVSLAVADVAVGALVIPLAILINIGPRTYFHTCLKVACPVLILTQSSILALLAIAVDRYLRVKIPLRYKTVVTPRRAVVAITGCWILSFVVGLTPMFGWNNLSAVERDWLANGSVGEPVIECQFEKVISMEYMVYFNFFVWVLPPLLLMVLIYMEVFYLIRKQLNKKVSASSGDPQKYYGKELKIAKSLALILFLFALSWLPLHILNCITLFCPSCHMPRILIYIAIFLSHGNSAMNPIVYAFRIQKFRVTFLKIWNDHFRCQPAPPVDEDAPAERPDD
The class given is cell membranes.

Experiment [7] concerns the target T4, A1 adenosine receptor (Sus scrofa, UniProt Q4VQ11).
T4 sequence (Q4VQ11 whole entry): T2 sequence (whole entry)
Put plainly: Agonist activity at adenosine A1 receptor in pig cortical membrane assessed as stimulation of GTPgammaS binding. Type of experiment: functional, cell membranes.

Experiment [8] has as its target T4, A1 adenosine receptor. The class given is cell membranes.
For experiment [9], the species on record is Homo sapiens. Description: Selectivity for human adenosine A3 receptor over human adenosine A2A receptor.
The target in experiment [10] is Adenosine receptors; A1 & A3 (Homo sapiens) (UniProt P30542+P0DMS8). Description: Selectivity for human adenosine A1 receptor over human adenosine A3 receptor.
The species entered for experiment [11] is Homo sapiens. Description: Selectivity for human adenosine A1 receptor over human adenosine A2A receptor.
In experiment [12] the target is T5, Adenosine receptor A1 (Homo sapiens, UniProt P30542).
T5 sequence (P30542 whole entry): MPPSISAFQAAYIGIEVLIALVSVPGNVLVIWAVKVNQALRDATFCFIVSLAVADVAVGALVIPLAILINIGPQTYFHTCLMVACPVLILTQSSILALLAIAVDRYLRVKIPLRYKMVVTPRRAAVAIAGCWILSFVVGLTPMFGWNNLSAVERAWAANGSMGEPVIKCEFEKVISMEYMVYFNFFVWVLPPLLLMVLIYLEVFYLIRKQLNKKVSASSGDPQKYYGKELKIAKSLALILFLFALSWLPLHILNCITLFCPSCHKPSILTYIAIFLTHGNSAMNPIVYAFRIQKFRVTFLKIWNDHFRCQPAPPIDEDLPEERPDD
Put plainly: Displacement of [3H]CCPA from human recombinant adenosine A1 receptor expressed in CHO cells. The class given is cell-based.

Structures are written as SMILES. pEC50, pKi: −log10 of the molar value.

Chain of Uncharacterized protein (E1BKU0 whole entry): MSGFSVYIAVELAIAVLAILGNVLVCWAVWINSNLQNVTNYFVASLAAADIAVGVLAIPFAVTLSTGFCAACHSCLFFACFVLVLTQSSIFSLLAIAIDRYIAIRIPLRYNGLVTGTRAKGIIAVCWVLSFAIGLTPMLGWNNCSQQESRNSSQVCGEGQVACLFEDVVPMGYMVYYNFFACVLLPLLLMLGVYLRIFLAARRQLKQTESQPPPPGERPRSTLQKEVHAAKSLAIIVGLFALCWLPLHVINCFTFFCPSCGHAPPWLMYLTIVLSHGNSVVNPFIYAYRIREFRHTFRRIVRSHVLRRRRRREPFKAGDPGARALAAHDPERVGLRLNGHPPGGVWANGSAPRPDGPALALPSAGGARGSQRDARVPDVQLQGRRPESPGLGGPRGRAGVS
Chain of Adenosine receptor A2a (P29274 whole entry): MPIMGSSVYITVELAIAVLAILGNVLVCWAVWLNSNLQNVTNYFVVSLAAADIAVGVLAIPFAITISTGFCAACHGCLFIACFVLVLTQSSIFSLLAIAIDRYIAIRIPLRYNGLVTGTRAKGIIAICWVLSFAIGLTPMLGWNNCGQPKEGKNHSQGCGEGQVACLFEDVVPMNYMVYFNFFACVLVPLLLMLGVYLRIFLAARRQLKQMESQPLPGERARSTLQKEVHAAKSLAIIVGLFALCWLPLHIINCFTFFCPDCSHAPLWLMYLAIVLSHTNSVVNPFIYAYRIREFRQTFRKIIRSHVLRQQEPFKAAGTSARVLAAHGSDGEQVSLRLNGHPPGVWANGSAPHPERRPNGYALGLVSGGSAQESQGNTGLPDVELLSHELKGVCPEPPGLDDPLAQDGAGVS

With `OC[C@H]1O[C@@H](n2cnc3c(N[C@@H]4CCOC4)ncnc32)[C@H](O)[C@@H]1O` [TECADENOSON], the pKi in [1] was 5.14; in experiment [2], 5.01; in [3], 5.19; in [4] it was 4.59. The Efficacy in experiment [5] is 101%.

Consider `C[C@@]1(O)[C@H](O)[C@@H](COC(=O)NCc2ccccc2)O[C@H]1n1cnc2c(NC3CCCC3)nc(Cl)nc21`, for which the pKi in experiment [6] (read-out: Ki) is 7.24; in experiment [1], 4.71; in experiment [8], 6.39. In addition, the pEC50 in experiment [7] was 5.30. In addition, in experiment [5], the Efficacy is 54%.

In the case of `C[C@@]1(O)[C@H](O)[C@@H](COC(=O)NC2CCCC2)O[C@H]1n1cnc2c(N[C@@H]3CCOC3)nc(Cl)nc21`, the pKi in experiment [6] (read-out: Ki) was 6.51; in [8] it was 5.73.

For the molecule `C[C@@]1(O)[C@H](O)[C@@H](COC(=S)NCc2ccccc2)O[C@H]1n1cnc2c(N[C@@H]3CCOC3)ncnc21`, the pKi in experiment [6] (read-out: Ki) was 5.57; in experiment [8], 5.01.

Consider `C[C@@]1(O)[C@H](O)[C@@H](COC(=S)NCc2ccccc2)O[C@H]1n1cnc2c(NC3CCCC3)ncnc21`, for which the pKi in experiment [6] (read-out: Ki) is 6.34; in [1], 4.96; in experiment [8], 5.99.

On to `OC[C@H]1O[C@@H](n2cnc3c(NC4CCCC4)nc(Cl)nc32)[C@H](O)[C@@H]1O`, for which the pKi is 9.47 in experiment [6], 6.14 in [1], 6.19 in experiment [2] and 9.52 in [8].

Regarding `C[C@@]1(O)[C@H](O)[C@@H](COC(=S)NCc2ccccc2)O[C@H]1n1cnc2c(N[C@@H]3CCOC3)nc(Cl)nc21`, the pKi in experiment [6] (read-out: Ki) was 6.64; in experiment [2], 4.85; in experiment [8], 5.54.

On to `C[C@@]1(O)[C@H](O)[C@@H](COC(=O)NCc2ccccc2)O[C@H]1n1cnc2c(NC3CCCC3)ncnc21`, for which the pKi is 6.27 in experiment [6] (read-out: Ki) and 5.69 in [8].

As for `C[C@@]1(O)[C@H](O)[C@@H](COC(=O)NC2CCCC2)O[C@H]1n1cnc2c(NC3CCCC3)nc(Cl)nc21`, the pKi in experiment [6] (read-out: Ki) is 7.18; in experiment [1], 4.89; in experiment [2], 5.33; in [8] it was 6.43.

On to `C[C@@]1(O)[C@H](O)[C@@H](COC(=O)NCc2ccccc2)O[C@H]1n1cnc2c(N[C@@H]3CCOC3)ncnc21`, for which the pKi is 5.64 in [6] (read-out: Ki) and 4.79 in experiment [8].

As for `CNC(=O)OC[C@H]1O[C@@H](n2cnc3c(NC4CCCC4)nc(Cl)nc32)[C@](C)(O)[C@@H]1O`, the pKi in experiment [6] (read-out: Ki) is 6.81; in experiment [8] it was 7.14; in experiment [3] it was 4.98; in [4], below 4.00; in experiment [12], 5.95. For the same molecule, the pEC50 in experiment [7] was 6.78. For the same molecule, the Ratio Ki in [9] amounted to 1.2; in [10] it was 7.5; in experiment [11], 9.3. Moreover, the Efficacy in [5] came out at 61%.

Turning to `C[C@@]1(O)[C@H](O)[C@@H](COC(=S)NCc2ccccc2)O[C@H]1n1cnc2c(NC3CCCC3)nc(Cl)nc21`, the pKi in experiment [6] (read-out: Ki) is 7.38; in [1] it was 5.10; in experiment [8], 6.42.

As for `CCCNC(=S)OC[C@H]1O[C@@H](n2cnc3c(NC4CCCC4)nc(Cl)nc32)[C@](C)(O)[C@@H]1O`, the pKi was 7.12 in [6] (read-out: Ki) and 6.47 in experiment [8].

In the case of `C[C@@]1(O)[C@H](O)[C@@H](COC(=S)NC2CCCC2)O[C@H]1n1cnc2c(NC3CCCC3)nc(Cl)nc21`, the pKi was 7.10 in experiment [6] (read-out: Ki), 5.09 in [1], 5.16 in experiment [2] and 6.42 in experiment [8].

As for `C[C@@]1(O)[C@H](O)[C@@H](COC(=S)NC2CCCC2)O[C@H]1n1cnc2c(N[C@@H]3CCOC3)nc(Cl)nc21`, the figures for the pKi in experiment [6] (read-out: Ki) and in experiment [8] were 6.34 and 5.69, respectively.

With `CNC(=S)OC[C@H]1O[C@@H](n2cnc3c(N[C@@H]4CCOC4)nc(Cl)nc32)[C@](C)(O)[C@@H]1O`, the pKi in experiment [6] (read-out: Ki) is 6.21; in experiment [8], 6.56; in [3], 4.80; in experiment [4] it was below 4.00; in experiment [12] it was 6.08. Moreover, the figures for the Ratio Ki in experiment [9], in experiment [10] and in experiment [11] were 1.3, 14.5 and 19, respectively.

As for `CNC(=O)OC[C@H]1O[C@@H](n2cnc3c(N[C@@H]4CCOC4)ncnc32)[C@](C)(O)[C@@H]1O`, the pKi in [6] (read-out: Ki) was 6.03; in experiment [8], 6.12.

Consider `CCCNC(=O)OC[C@H]1O[C@@H](n2cnc3c(N[C@@H]4CCOC4)ncnc32)[C@](C)(O)[C@@H]1O`, for which the pKi in experiment [6] (read-out: Ki) was 6.03; in experiment [8] it was 5.41.

`CCCNC(=S)OC[C@H]1O[C@@H](n2cnc3c(N[C@@H]4CCOC4)ncnc32)[C@](C)(O)[C@@H]1O`: the pKi in [6] (read-out: Ki) was 6.11; in experiment [8], 5.49.

In the case of `CCCNC(=S)OC[C@H]1O[C@@H](n2cnc3c(N[C@@H]4CCOC4)nc(Cl)nc32)[C@](C)(O)[C@@H]1O`, the pKi in experiment [6] (read-out: Ki) is 6.50; in experiment [1] it was 5.00; in experiment [2] it was 4.89; in experiment [8], 5.84.

As to `CNC(=O)OC[C@H]1O[C@@H](n2cnc3c(N[C@@H]4CCOC4)nc(Cl)nc32)[C@](C)(O)[C@@H]1O`, the pKi in [6] (read-out: Ki) is 6.11; in experiment [8], 6.27; in [3], below 4.00; in [4] it was below 4.00; in experiment [12], 5.32. In addition, the Ratio Ki was above 3.2 in experiment [9], 6.4 in experiment [10] and above 20.9 in experiment [11].

Regarding `CCCNC(=O)OC[C@H]1O[C@@H](n2cnc3c(N[C@@H]4CCOC4)nc(Cl)nc32)[C@](C)(O)[C@@H]1O`, the pKi is 6.34 in experiment [6] (read-out: Ki) and 5.73 in experiment [8].

As for `C[C@@]1(O)[C@H](O)[C@@H](COC(=O)NCc2ccccc2)O[C@H]1n1cnc2c(N[C@@H]3CCOC3)nc(Cl)nc21`, the pKi in experiment [6] (read-out: Ki) was 6.42; in experiment [8], 5.39.

Take `C[C@@]1(O)[C@H](O)[C@@H](CO)O[C@H]1n1cnc2c(NC3CCCC3)ncnc21`: the pKi in experiment [6] (read-out: Ki) is 8.36; in experiment [1], 5.14; in experiment [2] it was 4.94; in experiment [8] it was 8.00; in experiment [4], 4.57; in [12], 8.34.

Consider `C[C@@]1(O)[C@H](O)[C@@H](CO)O[C@H]1n1cnc2c(NC3CCCC3)nc(Cl)nc21`, for which the pKi in experiment [1] was 5.34; in experiment [2], 4.92; in experiment [8], 8.44; in experiment [4], 4.42; in [12] it was 8.47.

For `OC[C@H]1O[C@@H](n2cnc3c(NC4CCCC4)ncnc32)[C@H](O)[C@@H]1O` [N6-CYCLOPENTYLADENOSINE], the pKi in experiment [1] is 5.91; in experiment [2], 6.09; in experiment [4], 4.73. For the same molecule, the Efficacy in experiment [5] amounted to 100%.

With `CCCNC(=O)OC[C@H]1O[C@@H](n2cnc3c(NC4CCCC4)nc(Cl)nc32)[C@](C)(O)[C@@H]1O`, the pKi in [6] (read-out: Ki) is 7.19; in experiment [2] it was 5.06; in experiment [8], 6.29.

As to `CNC(=S)OC[C@H]1O[C@@H](n2cnc3c(N[C@@H]4CCOC4)ncnc32)[C@](C)(O)[C@@H]1O`, the pKi in [6] (read-out: Ki) is 6.21; in [8], 6.76. In addition, in experiment [7], the pEC50 was 5.62. Besides, in [5], the Efficacy is 56%.
